Reference: patent publication US6825317B2, “Cyclic tetrapeptide derivatives and pharmaceutical uses thereof” (Sumitomo Pharmaceuticals Company, Limited, priority 1999, dated 2004)
Non-standard residues stand in square brackets, D forms with d. Residues, ends and D or L forms follow the SMILES beside them. ξ: configuration not given here. *: point of attachment. Asu = N[C@@H](CCCCCC(=O)O)C(=O)O; Cha = N[C@@H](CC1CCCCC1)C(=O)O; Ile(3ξ) = CCC(C)[C@H](N)C(=O)O; dCha = N[C@H](CC1CCCCC1)C(=O)O; Aic = NC1(C(=O)O)Cc2ccccc2C1; Ac8c = NC1(C(=O)O)CCCCCCC1; Ac7c = NC1(C(=O)O)CCCCCC1; Pip = O=C(O)[C@@H]1CCCCN1; dPip = O=C(O)[C@H]1CCCCN1; Ac6c = NC1(C(=O)O)CCCCC1; Ac5c = NC1(C(=O)O)CCCC1; Aib = CC(C)(N)C(=O)O; NHOH = ON*

Key:
[1] = system: MHC class-I molecule expression on B16/BL6 cells; assay: MHC class-I molecule expression-promoting activity; type: cell-based, mouse; conditions: concentration giving twice-promoted MHC class-I expression relative to untreated control, 72 hours culture with compound
Procedure: The cyclic tetrapeptide derivatives of the present invention were investigated for their MHC class-I molecule expression-promoting actions in the following test.
The cancer cells used were mouse melanoma, B16/BL6 cells, provided by the National Cancer Institute, U.S.A. Said cells were cultured in MEM media supplemented with 10% FBS at 37° C., 5% CO2 in an humidified incubator.
A compound to be tested was preliminarily dissolved in dimethylsulfoxide (DMSO) and adjusted to a concentration of 100 mM or 10 mM (stock solution). […] Trichostatin A was used as a positive control compound for MHC class-I molecule expression-promoting action due to histone deacetylase enzyme-inhibiting activity. DMSO used as a solvent for the stock solution of a test compound would inevitably be introduced into the medium in the test; however, it had been separately confirmed not to affect the test results in amounts within the range used in the test.
Said B16/BL6 cells were inoculated on a 96-well microplate at a cell density of 5000 cells per well, each well containing 200 μAl of said medium. After culturing for 24 hours, 10 μl of a sample containing a given amount of the stock solution of a test compound which had been diluted in the medium was added and cultured for additional 72 hours. Thereafter, each well was washed once with PBS (phosphate buffered saline) and floating cells and the medium were removed. Then, the well was treated with 0.1% glutaraldehyde solution for 3 minutes to fix the cells.
The amount of MHC class-I molecule expressed on the surface of the fixed cells was measured as follows. Anti-H-2K^bD^bD^d antibody, which is an antibody against mouse MHC class-I molecule (commercially available from Meiji Milk Co., Ltd), was used as a primary antibody, biotinylated anti-mouse IgG+M (commercially available from Chemicon) was used as a secondary antibody, and streptavidin-galactosidase conjugate (commercially available from BRL) was reacted as a labeling enzyme. The amount of the thus labeled enzyme-galactosidase was measured in a microplate reader by recording the fluorescent intensity (excitation: 365 nm, fluorescence: 450 nm) resulting from the enzyme reaction product using 4-methylumbelliferyl-D-galactoside (commercially available from Nacalai Tesque) as a substrate. A fluorescence intensity measured for another well to which no test compound was added and which was treated in a similar manner without adding said primary antibody was used as a background level. The value obtained by subtracting said background level from the actually measured value (an apparent value including the background level) was defined as a true measurement reflecting the amount of expressed MHC class-I molecule.
A group without the addition of any test compound was used as a control group and the measurement of MHC class-I molecule expressed in said group was used as a standard value. The amount of MHC class-I molecule expressed at an addition concentration of each test compound was shown as a relative amount based on said standard value set to one (1). The strength of each test compound activity was compared at a concentration which provides twice-promoted expression (C×2).

[2] = system: histone deacetylase partially purified from B16/BL6 cells; assay: Inhibitory activity against histone deacetylase enzyme; type: biochemical, mouse; conditions: crude enzyme from B16/BL6 cells, [3H]acetylated histone H4 peptide substrate, 37 for 3 hours; read-out: 50% inhibitory concentration
Procedure: The preparation of histone deacetylase was performed essentially according to the method of Yoshida et al. (J. Biol. Chem., 265, 17174-17179, 1990). The enzyme to be used was partially purified from B16/BL6 cells. The cells were suspended in HDA buffer (15 mM potassium phosphate, 5% glycerol, 0.2 mM EDTA, 1 mM 2-mercaptoethanol, pH 7.5), homogenized and centrifuged (2500× g, 10 min) to collect the nuclei, which were then homogenized in the same buffer containing 1 M (NH4)2SO4. After ultrasonic disruption and centrifugation, the concentration of (NH4)2SO4 in the collected supernatant was increased to 3.5 M to precipitate histone deacetylase. This precipitate was re-dissolved in HDA buffer, subjected to gel filtration to replace the solvent by HDA buffer, and used as a crude histone deacetylase enzyme solution.
As a substrate, a synthetic substrate peptide, [^3H]acetylated histone H4 peptide was used. This [^3H]acetylated histone H4 peptide was obtained by synthesizing the N-terminal peptide of histone H4; […] (SEQ ID NO: 1: the C-terminal being cysteine) and then radioactively acetylating with ^3H-acetic anhydride.
An assay was performed by incubating the synthetic substrate solution and the enzyme solution at 37 for 3 hours in the presence of a compound to be tested (reaction volume, 100 μl). The reaction was stopped by adding 25 μl of 1 M HCl and 0.2 M acetic acid, and [^3H]acetate cleaved by the enzyme reaction was extracted with ethyl acetate for radioactivity measurement. For a control group, the same procedure was repeated without addition of any test compound to the reaction system. Each test compound was evaluated for a concentration required to cause 50% inhibition of the histone deacetylase enzyme activity in the control group (50% inhibitory concentration).

Row | SMILES | IC50 [2] | Twice promoting concentration Cx2 [1]
1 | O=C(CCCCC[C@@H]1NC(=O)[C@@H]2CCCCN2C(=O)[C@H](CC2CCCCC2)NC(=O)[C@@H](CC2CCCCC2)NC1=O)NO [CHAP78, cyclo(-L-Asu(NHOH)-D-Cha-L-Cha-L-Pip-)] (cyclo([Asu](NHOH)[dCha][Cha][Pip])) | 3.88 nM | 2.35 nM
2 | CC[C@H](C)[C@@H]1NC(=O)[C@@H](CC2CCCCC2)NC(=O)[C@H](CCCCCC(=O)NO)NC(=O)[C@H]2CCCCN2C1=O [CHAP86, cyclo(-L-Asu(NHOH)-D-Cha-L-Ile-D-Pip-)] (cyclo([Asu](NHOH)[dCha]I[dPip])) | 3.14 nM | 3.29 nM
3 | CCC(C)[C@@H]1NC(=O)[C@@H](CC2CCCCC2)NC(=O)[C@H](CCCCCC(=O)NO)NC(=O)[C@@H]2CCCCN2C1=O (stereo partly drawn) [CHAP87, cyclo(-L-Asu(NHOH)-D-Cha-L-Ile-L-Pip-)] (cyclo([Asu](NHOH)[dCha][Ile(3ξ)][Pip])) | 1.98 nM | 5.39 nM
4 | O=C(CCCCC[C@@H]1NC(=O)[C@H]2CCCCN2C(=O)[C@H](CC2CCCCC2)NC(=O)[C@@H](CC2CCCCC2)NC1=O)NO [CHAP79, cyclo(-L-Asu(NHOH)-D-Cha-L-Cha-D-Pip-)] (cyclo([Asu](NHOH)[dCha][Cha][dPip])) | 3.9 nM | 2.79 nM
5 | CC(C)C[C@@H]1NC(=O)[C@@H](CC2CCCCC2)NC(=O)[C@H](CCCCCC(=O)NO)NC(=O)[C@@H]2CCCCN2C1=O [CHAP84, cyclo(-L-Asu(NHOH)-D-Cha-L-Leu-L-Pip-)] (cyclo([Asu](NHOH)[dCha]L[Pip])) | 2.22 nM | 5.65 nM
6 | O=C(CCCCC[C@@H]1NC(=O)[C@H]2CCCN2C(=O)[C@H](Cc2ccccc2)NC(=O)C2(CCCCCCC2)NC1=O)NO [CHAP76, cyclo(-L-Asu(NHOH)-Acc8-L-Phe-D-Pro-)] (cyclo([Asu](NHOH)[Ac8c]F[dP])) | 3.99 nM | 1.88 nM
7 | CC(C)C[C@@H]1NC(=O)[C@@H](CC2CCCCC2)NC(=O)[C@H](CCCCCC(=O)NO)NC(=O)[C@H]2CCCCN2C1=O [CHAP85, cyclo(-L-Asu(NHOH)-D-Cha-L-Leu-D-Pip-)] (cyclo([Asu](NHOH)[dCha]L[dPip])) | 1.96 nM | 2.26 nM
8 | CC1(C)NC(=O)[C@H](CCCCCC(=O)NO)NC(=O)[C@H]2CCCN2C(=O)[C@H](Cc2ccccc2)NC1=O [CHAP15, cyclo(-L-Asu(NHOH)-Aib-L-Phe-D-Pro-), reference compound] (cyclo([Aib]F[dP][Asu](NHOH))) | 5.17 nM | 33.2 nM
9 | O=C(CCCCC[C@@H]1NC(=O)[C@H]2CCCN2C(=O)[C@H](Cc2ccccc2)NC(=O)C2(CCCCCC2)NC1=O)NO [CHAP71, cyclo(-L-Asu(NHOH)-Acc7-L-Phe-D-Pro-)] (cyclo([Asu](NHOH)[Ac7c]F[dP])) | 2.14 nM | 2.76 nM
10 | O=C(CCCCC[C@@H]1NC(=O)[C@H]2CCCCN2C(=O)[C@H](Cc2ccccc2)NC(=O)C2(CCCCCCC2)NC1=O)NO [CHAP90, cyclo(-L-Asu(NHOH)-Acc8-L-Phe-D-Pip-)] (cyclo([Asu](NHOH)[Ac8c]F[dPip])) | 2.75 nM | 3.96 nM
11 | O=C(CCCCC[C@@H]1NC(=O)[C@H]2CCCN2C(=O)[C@H](Cc2ccccc2)NC(=O)C2(CCCCC2)NC1=O)NO [CHAP55, cyclo(-L-Asu(N-HOH)-Acc6-L-Phe-D-Pro-)] (cyclo([Ac6c]F[dP][Asu](NHOH))) | 2.19 nM | 5.38 nM

The next lines start with results.

Row | IC50 [2] | SMILES | Twice promoting concentration Cx2 [1]
12 | 3.02 nM | O=C(CCCCC[C@@H]1NC(=O)[C@H]2CCCN2C(=O)[C@H](Cc2ccccc2)NC(=O)C2(CCCC2)NC1=O)NO [CHAP54, cyclo(-L-Asu(NHOH)-Acc5-L-Phe-D-Pro-)] (cyclo([Ac5c]F[dP][Asu](NHOH))) | 5.67 nM
13 | 1.12 nM | O=C(CCCCC[C@@H]1NC(=O)[C@H]2CCCN2C(=O)[C@H](Cc2ccccc2)NC(=O)C2(CCc3ccccc32)NC1=O)NO (single isomer, unassigned) [CHAP82, cyclo(-L-Asu(NHOH)-1Ain(f)-L-Phe-D-Pro-)] | 2.69 nM
14 | 1.2 nM | O=C(CCCCC[C@@H]1NC(=O)[C@H]2CCCCN2C(=O)[C@H](Cc2ccccc2)NC(=O)C2(Cc3ccccc3C2)NC1=O)NO [CHAP91, cyclo(-L-Asu(NHOH)-2Ain-L-Phe-D-Pip-)] (cyclo([Aic]F[dPip][Asu](NHOH))) | 2.48 nM
15 | 0.98 nM | O=C(CCCCC[C@@H]1NC(=O)[C@H]2CCCN2C(=O)[C@H](Cc2ccccc2)NC(=O)C2(Cc3ccccc3C2)NC1=O)NO [CHAP81, cyclo(-L-Asu(NHOH)-2Ain-L-Phe-D-Pro-)] (cyclo([Aic]F[dP][Asu](NHOH))) | 1.29 nM
16 | 1.95 nM | O=C(CCCCC[C@@H]1NC(=O)[C@H]2CCCN2C(=O)[C@H](Cc2ccccc2)NC(=O)C2(CCc3ccccc32)NC1=O)NO (single isomer, unassigned) [CHAP83, cyclo(-L-Asu(NHOH)-1Ain(s)-L-Phe-D-Pro-)] | 2.29 nM
